Test results from ChEMBL document CHEMBL5120866, “Design and Synthesis of Novel Celastrol Derivatives as Potential Anticancer Agents against Gastric Cancer Cells” (J Nat Prod, 2022).

Experiments:
BGC-823 [1] = test: Antiproliferative activity against human BGC-823 cells assessed as cell growth inhibition incubated for 48 hrs by MTT assay; assay type: functional, cell-based; settings: BGC-823, 48 h
HCT-116 = test: Antiproliferative activity against human HCT-116 cells assessed as cell growth inhibition incubated for 48 hrs by MTT assay; assay type: functional, cell-based; settings: HCT-116, 48 h
HepG2 = test: Antiproliferative activity against human HepG2 cells assessed as cell growth inhibition incubated for 48 hrs by MTT assay; assay type: functional, cell-based; settings: HepG2, 48 h
MCF7 = test: Antiproliferative activity against human MCF7 cells assessed as cell growth inhibition incubated for 48 hrs by MTT assay; assay type: functional, cell-based; settings: MCF7, 48 h
HeLa = test: Antiproliferative activity against human HeLa cells assessed as cell growth inhibition incubated for 48 hrs by MTT assay; assay type: functional, cell-based
BGC-823 [2] = test: Induction of apoptosis in human BGC-823 cells assessed as viable cells at 1 uM incubated for 24 hrs by annexin-V-FITC and PI staining based flow cytometry analysis (reference value: 96.3%); assay type: functional; settings: read-out: Activity
BGC-823 [3] = test: Induction of apoptosis in human BGC-823 cells assessed as early apoptotic cells at 1 uM incubated for 24 hrs by annexin-V-FITC and PI staining based flow cytometry analysis (reference value: 2.4%); assay type: functional
BGC-823 [4] = test: Induction of apoptosis in human BGC-823 cells assessed as late apoptotic cells at 1 uM incubated for 24 hrs by annexin-V-FITC and PI staining based flow cytometry analysis (reference value: 0.6%); assay type: functional
BGC-823 [5] = test: Induction of apoptosis in human BGC-823 cells assessed as necrotic cells at 1 uM incubated for 24 hrs by annexin-V-FITC and PI staining based flow cytometry analysis (reference value: 0.6%); assay type: functional
BGC-823 [6] = test: Antitumor activity against human BGC-823 cells xenografted in athymic BALB/c nude mouse assessed as tumor growth inhibition rate at 1.5 mg/kg, ip measured every 2 days for 21 days by curson caliper method relative to control; assay type: functional; settings: BGC-823, 504 h, time 21 day, read-out: TGI
BGC-823 [7] = test: Antiproliferative activity against human BGC-823 cells assessed as cell growth inhibition at 0.5 uM incubated for 48 hrs by MTT assay relative to control; assay type: functional

Structure (SMILES) | IC50 (BGC-823 [1]) [µM] | IC50 (HCT-116) [µM] | IC50 (HepG2) [µM] | IC50 (MCF7) [µM] | IC50 (HeLa) [µM] | viability at 1 µM (BGC-823 [2]) [%] | Activity (BGC-823 [3]) [%] | Activity (BGC-823 [4]) [%] | Activity (BGC-823 [5]) [%] | inhibition in vivo at 1.5 mg/kg (BGC-823 [6]) [%] | inhibition at 0.5 µM (BGC-823 [7]) [%]
CC1=C(O)C(=O)C=C2C1=CC=C1[C@@]2(C)CC[C@@]2(C)[C@@H]3C[C@](C)(C(=O)O)CC[C@]3(C)CC[C@]12C [CELASTROL] | 1.1 | 1.9 | 1.5 | 1.7 | 1.7 | 79.7 | 16.1 | 4 | 0.2 | 76.5 | 
CC1=C(O)C(=O)C=C2C1=CC=C1[C@@]2(C)CC[C@@]2(C)[C@@H]3C[C@](C)(C(=O)OCCCCn4cccn4)CC[C@]3(C)CC[C@]12C | 0.47 | 0.89 | 0.86 | 1.1 | 1.1 |  |  |  |  |  | > 50
CC1=C(O)C(=O)C=C2C1=CC=C1[C@@]2(C)CC[C@@]2(C)[C@@H]3C[C@](C)(C(=O)OCCCCn4cc(C)cn4)CC[C@]3(C)CC[C@]12C | 0.43 | 0.88 | 0.84 | 1 | 0.91 |  |  |  |  |  | > 50
COC(=O)c1cnn(CCCCOC(=O)[C@]2(C)CC[C@]3(C)CC[C@]4(C)C5=CC=C6C(=CC(=O)C(O)=C6C)[C@]5(C)CC[C@@]4(C)[C@@H]3C2)c1 | 0.34 | 0.69 | 0.82 | 0.84 | 0.82 |  |  |  |  |  | > 50
CCOC(=O)c1cnn(CCCCOC(=O)[C@]2(C)CC[C@]3(C)CC[C@]4(C)C5=CC=C6C(=CC(=O)C(O)=C6C)[C@]5(C)CC[C@@]4(C)[C@@H]3C2)c1 | 0.33 | 0.53 | 0.7 | 0.72 | 0.75 |  |  |  |  |  | > 50

The remaining compounds from weak to strong by IC50 (BGC-823 [1]), led by results:

IC50 (BGC-823 [1]) [µM] | IC50 (HCT-116) [µM] | IC50 (HepG2) [µM] | IC50 (MCF7) [µM] | IC50 (HeLa) [µM] | Structure (SMILES) | viability at 1 µM (BGC-823 [2]) [%] | Activity (BGC-823 [3]) [%] | Activity (BGC-823 [4]) [%] | Activity (BGC-823 [5]) [%] | inhibition in vivo at 1.5 mg/kg (BGC-823 [6]) [%] | inhibition at 0.5 µM (BGC-823 [7]) [%]
0.46 | 0.64 | 0.48 | 0.74 | 0.88 | CC1=C(O)C(=O)C=C2C1=CC=C1[C@@]2(C)CC[C@@]2(C)[C@@H]3C[C@](C)(C(=O)OCCCCn4cc([N+](=O)[O-])cn4)CC[C@]3(C)CC[C@]12C |  |  |  |  |  | > 50
0.28 | 0.59 | 0.39 | 0.52 | 0.61 | COC(=O)c1cnn(CCCOC(=O)[C@]2(C)CC[C@]3(C)CC[C@]4(C)C5=CC=C6C(=CC(=O)C(O)=C6C)[C@]5(C)CC[C@@]4(C)[C@@H]3C2)c1 |  |  |  |  |  | > 50
